Here are results for 3 molecules from patent publication US20150056310A1, “COSMETIC METHOD FOR INCREASING COLLAGEN EXPRESSION IN SKIN COMPRISING TOPICALLY APPLYING AN EXTRACT OF QUASSIA AMARA” (BASF Beauty Care Solutions France S.A.S., priority 2013, published 2015).

For this assay, the system named is type I collagen protein expression in dermal fibroblast cells. As to the kind of experiment: Increase in type I collagen protein expression in dermal fibroblast cells cultured in vitro (immunolabelling, confocal microscopy, image analysis). The class given is cell-based, human. The following applies: 3 days, dermal fibroblasts, ratio relative to nontreated cells (NT = 1), mean of 4 assays. The method, then:
A Q. amara wood extract at 5% (w/w) obtained according to Example 1a) was tested on dermal fibroblast cells cultured in vitro. The extract was tested at final concentrations of 0.01% and 0.05% by volume in the culture medium. Preferentially, the final concentration was 0.01% (v/v).
Specifically, dermal fibroblasts from the abdomen of a donor were seeded into a culture chamber (8-well) and amplified in FGM (Fibroblast Growth Media) culture medium containing an antibiotic, normocin, for 3 or 4 days until confluence, the cell stage for which 100% of the cultured cells adhere to one another, forming a uniform cell layer.
The confluent cells were then treated in this same culture medium for 3 days with a Q. amara wood extract at a final concentration in the culture medium of 0.01% or 0.05% (v/v) (Table 1). Other control active ingredients were tested (Table 1): vitamin C (50 μg/ml) or retinaldehyde (1 μM) or TGFβ1 (1 ng/ml) (Transforming Growth Factor β1).
The culture media (FGM) containing the dermal fibroblast cells treated with an active agent, or the nontreated culture media, contained moreover 5 μg/ml of vitamin C, enabling the newly synthesized collagen to be secreted out of the cell.
After 3 days of incubation, the cells were rinsed with a phosphate buffered saline (PBS) buffer containing calcium, magnesium and antibiotics, and then fixed in cold methanol for 10 minutes with a view to performing immunolabelling.
An anti-type I collagen antibody was added to the medium with a view to performing immunolabelling.
The increase in type I collagen protein expression was observed by confocal microscopy (LSM 700, Zeiss, LePecq, France) and quantified by image analysis (FIG. 1).
The type I collagen protein expression was calculated as a ratio relative to a theoretical expression equal to 1 in the case of nontreated fibroblast cells (NT). The mean protein expression was obtained through the mean of 4 distinct assays (Table 1).

For the molecule “TGFβ: Transforming Growth Factor β1, control active ingredient”, the “Mean increase in type I collagen protein expression” value (from here on “Mean increase”) (1 ng/ml) is 1.42. Take `O=C1O[C@H]([C@@H](O)CO)C(O)=C1O` [Vitamin C, vitamin C]: the “Mean increase” value (50 μg/ml) amounted to 2.31. With `CC1=C(/C=C/C(C)=C/C=C/C(C)=C/C=O)C(C)(C)CCC1` [Retinaldehyde, retinaldehyde], the “Mean increase” value (1 μM) came out at 2.06.
